Experimental data taken from the supplement of paper PMC10011410.
± gives the standard deviation of the averaged measurements.

Assays:
[1] = test system: U-2 OS; assay: cell painting activity score (Mahalanobis distance from DMSO wells); higher = stronger morphological phenotype; conditions: 24 h
Experimental: (§1)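 Cell painting in U-2 OS cells (384-well, about 1,500 cells per well), compound exposure 24 h, usually six 2-fold concentrations from 20 to 0.625 uM (some compounds higher or lower). Relative cell count is the cell number per well relative to DMSO wells. Activity score is the Mahalanobis distance of the morphological profile from DMSO control wells. Mean of four technical replicate plates.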

[2] = test system: U-2 OS; assay: relative cell count vs DMSO (cell painting) (fraction of DMSO control); higher = more cells remaining (less cytotoxic); conditions: 24 h
Experimental: as §1

[3] = test system: U-2 OS; assay: AUC of culture confluence over time (live-cell imaging) (AUC (confluence % x time)); higher = more confluent culture (less growth inhibition)
Experimental: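 Live-cell Incucyte imaging of U-2 OS cells in F-12K medium. Compounds were tested mostly at 5, 10 and 20 uM, and cells were imaged every 4 h for up to 60 h. Value is the area under the curve of phase-contrast confluence over time.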

Row | Structure (SMILES) | cell painting activity score ([1]; 0.625 µM) | cell painting activity score ([1]; 1.25 µM) | cell painting activity score ([1]; 2.5 µM) | cell painting activity score ([1]; 5 µM) | cell painting activity score ([1]; 10 µM) | cell painting activity score ([1]; 20 µM) | relative cell count ([2]; 0.625 µM) | relative cell count ([2]; 1.25 µM) | relative cell count ([2]; 2.5 µM) | relative cell count ([2]; 5 µM) | relative cell count ([2]; 10 µM) | relative cell count ([2]; 20 µM) | AUC of culture confluence over time ([3]; 5 µM) | AUC of culture confluence over time ([3]; 10 µM) | AUC of culture confluence over time ([3]; 20 µM) | cell painting activity score ([1]; 0.019532 µM) | cell painting activity score ([1]; 0.07812 µM) | cell painting activity score ([1]; 0.3124 µM) | relative cell count ([2]; 0.019532 µM) | relative cell count ([2]; 0.07812 µM) | relative cell count ([2]; 0.3124 µM) | AUC of culture confluence over time ([3]; 1.25 µM)
1 | C[C@@H]1C[C@@H]([C@H](O)CC2CC(=O)NC(=O)C2)C(=O)[C@@H](C)C1 | 9.38 | 9.5 | 11.4 | 11.5 | 12.8 | 14.2 | 0.783 | 0.651 | 0.576 | 0.534 | 0.475 | 0.479 | 21 | 19.4 | 20.1 |  |  |  |  |  |  | 
2 | Nc1c[n+](N2CCOCC2)no1.[Cl-] | 6.05 | 6.1 | 9.31 | 10.9 | 12.9 | 15.2 | 0.896 | 0.814 | 0.739 | 0.578 | 0.503 | 0.489 | 49.4 | 49.9 | 48.7 |  |  |  |  |  |  | 
3 | Cc1nc(Nc2ncc(C(=O)Nc3c(C)cccc3Cl)s2)cc(N2CCN(CCO)CC2)n1 | 11.4 | 12.6 | 12.3 | 12.2 | 13.1 | 12.8 | 0.973 | 0.883 | 0.89 | 0.894 | 0.806 | 0.839 | 32.5 | 29 | 22.6 |  |  |  |  |  |  | 
4 | O=c1cc(N2CCOCC2)oc2c(-c3ccccc3)cccc12 | 3.52 | 4.47 | 4.5 | 5.36 | 6.81 | 9.26 | 1.02 | 0.978 | 0.971 | 0.962 | 1 | 0.948 | 42.2 | 40.7 | 31.5 |  |  |  |  |  |  | 
5 | CN(C)/N=N/c1nc[nH]c1C(N)=O | 4.78 | 4.12 | 4.94 | 4.77 | 3.79 | 4.2 | 1 | 0.996 | 0.98 | 0.966 | 1.02 | 1.02 | 43.6 | 42.3 | 45.2 |  |  |  |  |  |  | 
6 | CC[C@H]1CN2CCc3cc(OC)c(OC)cc3[C@@H]2C[C@@H]1C[C@H]1NCCc2cc(OC)c(OC)cc21.Cl.Cl.O | 18.4 | 18.9 | 19.4 | 20.8 | 20.8 | 20.6 | 0.51 | 0.489 | 0.482 | 0.462 | 0.462 | 0.433 | 15.2 | 16 | 16.6 |  |  |  |  |  |  | 
7 | COc1cc(OC)c2ccccc2c1C=C1C(=O)NC(=S)NC1=O | 13.6 | 16.2 | 16.1 | 16.1 | 18 | 17.8 | 0.833 | 0.687 | 0.472 | 0.428 | 0.377 | 0.379 | 13.1 | 12.8 | 13.6 |  |  |  |  |  |  | 
8 | CC(C)[C@H]1OC(=O)[C@H](Cc2ccccc2)N(C)C(=O)[C@@H](C(C)C)OC(=O)[C@H](Cc2ccccc2)N(C)C(=O)[C@@H](C(C)C)OC(=O)[C@H](Cc2ccccc2)N(C)C1=O | 3.92 | 4.9 | 9.63 | 14.2 | 15.5 | 34.1 | 0.976 | 0.957 | 0.981 | 0.73 | 0.439 | 0.0218 | 19.7 | 28.9 | 11.6 |  |  |  |  |  |  | 
9 | CC(C)(N=NC(C)(C)C(=N)N)C(=N)N.Cl.Cl | 5.15 | 4.98 | 5.89 | 7.2 | 8.42 | 9.74 | 1.01 | 0.966 | 0.949 | 1.01 | 0.975 | 0.977 | 49.5 | 48.3 | 46.6 |  |  |  |  |  |  | 
10 | CC1OC2=C(C(=O)C(=O)c3ccccc32)C1(C)C (stereo not given) | 15 | 17.1 | 20.7 | 25.1 | 33.8 | 34.2 | 0.845 | 0.561 | 0.299 | 0.207 | 0.14 | 0.134 | 19.5 | 18.5 | 16 |  |  |  |  |  |  | 
11 | COC(=O)[C@@]12OC[C@]34[C@H]([C@@H](O)[C@@H]1O)[C@@]1(C)CC(=O)C(O)=C(C)[C@@H]1C[C@H]3OC(=O)[C@H](OC(=O)CC(C)C)[C@@H]24 | 15.1 | 15.9 | 16.9 | 17.5 | 18.1 | 17.9 | 0.469 | 0.475 | 0.461 | 0.47 | 0.397 | 0.365 | 14.4 | 12.2 | 13.9 |  |  |  |  |  |  | 
12 | CC(=O)O[C@H]1C(=O)[C@@]2(C)[C@H]([C@H](OC(=O)c3ccccc3)[C@]3(O)C[C@H](OC(=O)[C@H](O)[C@@H](NC(=O)c4ccccc4)c4ccccc4)C(C)=C1C3(C)C)[C@]1(OC(C)=O)CO[C@@H]1C[C@@H]2O |  | 24.9 ± 1.2 |  | 23.3 ± 0.75 |  | 24.1 ± 0.87 |  | 0.253 ± 0.051 |  | 0.222 ± 0.03 |  | 0.351 ± 0.024 | 17.4 |  | 20 | 16.9 ± 1.5 | 19 ± 0.57 | 22.1 ± 1.1 | 0.939 ± 0.12 | 0.744 ± 0.19 | 0.413 ± 0.16 | 17
13 | COc1ccc2c(c[n+](C)c3c4cc5c(cc4ccc23)OCO5)c1OC | 5.1 | 3.72 | 14.6 | 14.5 | 13.8 | 16.2 | 0.994 | 1.03 | 1.01 | 0.982 | 0.695 | 0.0282 | 46.8 | 41 | 11.4 |  |  |  |  |  |  | 
14 | O=C(c1ccc(/C=C/c2n[nH]c3ccccc23)cc1)N1CCNCC1 | 9.05 | 12 | 17.9 | 19.2 | 18.8 | 18.8 | 1.02 | 0.914 | 0.649 | 0.572 | 0.532 | 0.526 | 28.9 | 32.6 | 26.8 |  |  |  |  |  |  | 
15 | O.O=P1(N(CCCl)CCCl)NCCCO1 (stereo not given) | 3.69 | 3.83 | 3.34 | 3.43 | 4.46 | 9.23 | 0.967 | 0.999 | 0.965 | 0.985 | 0.993 | 0.941 | 43.1 | 41.1 | 44.2 |  |  |  |  |  |  | 
16 | Nc1nccc2c1ncn2[C@@H]1C=C(CO)[C@@H](O)[C@H]1O | 18.6 | 18.8 | 26.9 | 28 | 26.4 | 26.2 | 0.949 | 0.964 | 0.944 | 0.938 | 0.941 | 0.94 | 36.9 | 32.7 | 34.3 |  |  |  |  |  |  | 
17 | CC[C@@H]1/C=C/C=C/C[C@H](C)[C@@H](O)[C@](C)(O)C(=O)[C@H](C)[C@@H](O)[C@H](C)C(=O)[C@H](C)[C@@H](O)[C@H](C)/C=C/C(=O)O[C@H]2[C@@H](C)[C@@H](CC1)O[C@@]1(CC[C@@H](C)[C@@H](C[C@H](C)O)O1)[C@@H]2C | 14.7 | 14.7 | 14.5 | 13.4 | 13.8 | 15 | 0.797 | 0.815 | 0.83 | 0.833 | 0.872 | 0.697 | 28.5 | 29.6 | 17.4 |  |  |  |  |  |  | 
18 | CC(=O)N[C@@H](CCCCNC(=O)CSCCNC(=O)CCNC(=O)[C@H](O)C(C)(C)COP(=O)(O)OP(=O)(O)OC[C@H]1O[C@@H](n2cnc3c(N)ncnc32)[C@H](O)[C@@H]1OP(=O)(O)O)C(N)=O.O=C(O)C(F)(F)F | 3.32 | 5.02 | 3.77 | 3.73 | 4.57 | 4.45 | 0.896 | 0.879 | 0.923 | 0.883 | 0.875 | 0.903 | 44.2 | 44.8 | 42.4 |  |  |  |  |  |  | 
19 | COc1cc(=O)oc(/C=C/C=C/C=C/C(C)=C/[C@]2(C)O[C@H](C)[C@](C)(O)[C@H]2O)c1C | 4.29 | 4.47 | 6.44 | 11.5 | 12.8 | 12.1 | 0.993 | 0.982 | 0.972 | 0.928 | 0.826 | 0.758 | 34.4 | 30.9 | 27.2 |  |  |  |  |  |  | 
20 | Cc1cnc(CNC(=O)c2c(=O)c3ccc(N4CCCN(C)CC4)nc3n3c2sc2ccccc23)cn1 | 9.34 | 10.9 | 10.3 | 10.4 | 11.4 | 11 | 0.709 | 0.607 | 0.591 | 0.572 | 0.559 | 0.548 | 33.9 | 34.5 | 35 |  |  |  |  |  |  | 
